Assay results published in patent publication US11370774B2, “Substituted benzofuran, benzopyrrole, benzothiophene, and structurally related complement inhibitors” (BioCryst Pharmaceuticals, Inc., priority 2018, dated 2022).

Target: Factor D (Homo sapiens (Human), UniProt P00746)
Experiment: Factor D esterolytic assay (Z-Lys-SBzl substrate, DTNB, 405 nm)
Assay type: biochemical
Settings: Z-Lys-SBzl 1.29 mM, pH 7.5, 10% DMSO, tested a minimum of three times, read-out: Measured Ki (IC50) Value for Compounds: IC50
Outline: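 Thioester hydrolysis (Z-Lys-SBzl, 1.29 mM) by human Factor D ([…]) detected through DTNB color at 405 nm over 600 sec, minus 690 nm background. Buffer: 100 mM HEPES pH 7.5, 500 mM NaCl, 10% DMSO; optional room-temperature preincubation before substrate. IC50 derived from percent rate inhibition; at least three runs.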

Factor D, sequence (P00746 26-253): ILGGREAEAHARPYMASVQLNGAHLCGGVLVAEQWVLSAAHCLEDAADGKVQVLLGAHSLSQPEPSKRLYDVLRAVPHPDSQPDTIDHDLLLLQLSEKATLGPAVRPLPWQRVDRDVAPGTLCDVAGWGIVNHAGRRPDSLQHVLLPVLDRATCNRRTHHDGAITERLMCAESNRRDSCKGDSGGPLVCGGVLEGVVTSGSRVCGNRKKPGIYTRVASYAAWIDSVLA

Row | IC50 [nM] | Compound
1 | < 1000 | NCc1cccc(-c2cc(COc3ccccc3CC(=O)O)cc3oc(Cl)cc23)c1 [Compound 225h, 2-(2-((4-(3-(aminomethyl)phenyl)-2-chlorobenzofuran-6-yl)methoxy)phenyl)acetic acid]
2 | < 1000 | CC(=O)Nc1ccc(CC(=O)O)c(OCc2cc(-c3cccc(CN)c3F)c3occc3c2)c1 [Compound 432c, 2-(4-acetamido-2-((7-(3-(aminomethyl)-2-fluorophenyl)benzofuran-5-yl)methoxy)phenyl)acetic acid]
3 | < 1000 | COCc1cc2cc(COc3cc(OC)ccc3CC(=O)O)cc(-c3ccnc(CN)c3F)c2o1 [Compound 471d, 2-(2-((7-(2-(aminomethyl)-3-fluoropyridin-4-yl)-2-(methoxymethyl)benzofuran-5-yl)methoxy)-4-methoxyphenyl)acetic acid]
4 | < 1000 | NCc1cccc(-c2cc(COc3cc(F)ccc3CC(=O)O)cc3c(C(F)(F)F)coc23)c1 [Compound 486c, 2-(2-((7-(3-(aminomethyl)phenyl)-3-(trifluoromethyl)benzofuran-5-yl)methoxy)-4-fluorophenyl)acetic acid]
5 | < 1000 | NCc1cccc(-c2cc(COc3ccccc3CC(=O)O)cc3cc(F)oc23)c1 [Compound 227e, 2-(2-((7-(3-(aminomethyl)phenyl)-2-fluorobenzofuran-5-yl)methoxy)phenyl)acetic acid]
6 | < 1000 | NCc1cccc(-c2cc(NC(=O)N3CCC[C@H]3C(=O)NCc3cccc(Cl)c3F)cc3ccoc23)c1 [Compound 418c, (S)—N1-(7-(3-(aminomethyl)phenyl)benzofuran-5-yl)-N2-(3-chloro-2-fluorobenzyl)pyrrolidine-1,2-dicarboxamide]
7 | < 1000 | COc1ccc(CC(=O)O)c(OCc2cc(-c3ccnc(CN)c3F)c3occc3c2F)c1 [Compound 385d, 2-(2-((7-(2-(aminomethyl)-3-fluoropyridin-4-yl)-4-fluorobenzofuran-5-yl)methoxy)-4-methoxyphenyl)acetic acid]
8 | < 1000 | Cc1cccc(CC(=O)O)c1NC(=O)c1cc(-c2cccc(CN)c2)c2occc2c1 [Compound 165f, 2-(2-(7-(3-(aminomethyl)phenyl)benzofuran-5-carboxamido)-3-methylphenyl)acetic acid]
9 | < 1000 | NCc1cc(-c2c(F)c(COc3ccccc3CC(=O)O)cc3ccoc23)ccn1 [Compound 519c, 2-(2-((7-(2-(aminomethyl)pyridin-4-yl)-6-fluorobenzofuran-5-yl)methoxy)phenyl)acetic acid]
10 | < 1000 | NCc1cc(-c2cc(COc3cc(F)ccc3CC(=O)O)cc3c(C(F)(F)F)coc23)ccn1 [Compound 491b, 2-(2-((7-(2-(aminomethyl)pyridin-4-yl)-3-(trifluoromethyl)benzofuran-5-yl)methoxy)-4-fluorophenyl)acetic acid]
11 | < 1000 | Cc1cc2cc(COc3ccccc3CC(=O)O)cc(-c3ccnc(CN)c3F)c2o1 [Compound 113c, 2-(2-((7-(2-(aminomethyl)-3-fluoropyridin-4-yl)-2-methylbenzofuran-5-yl)methoxy)phenyl)acetic acid]
12 | < 1000 | Cc1cc(CC(=O)O)c(OCc2cc(-c3cccc(CN)c3F)c3occc3c2)cc1C [Compound 427b, 2-(2-((7-(3-(aminomethyl)-2-fluorophenyl)benzofuran-5-yl)methoxy)-4,5-dimethylphenyl)acetic acid]
13 | < 1000 | NCc1cccc(-c2nc(COc3ccccc3CC(=O)O)nc3c2ccn3CC2CC2)c1 [Compound 26d, 2-(2-((4-(3-(aminomethyl)phenyl)-7-(cyclopropylmethyl)-7H-pyrrolo[2,3-d]pyrimidin-2-yl)methoxy)phenyl)acetic acid]
14 | < 1000 | NCc1cccc(-c2cc(NC(=O)[C@@H]3CCC[C@H]3C(=O)NCc3cccc(Cl)c3F)cc3ccoc23)c1 (relative stereo) [Compound 217e, (trans)-N1-(7-(3-(aminomethyl)phenyl)benzofuran-5-yl)-N2-(3-chloro-2-fluorobenzyl)cyclopentane-1,2-dicarboxamide]
15 | < 1000 | NCc1cc(F)cc(-c2cc(C(=O)Nc3ccccc3CC(=O)O)cc3[nH]ccc23)c1 [Compound 19c, 2-(2-(4-(3-(aminomethyl)-5-fluorophenyl)-1H-indole-6-carboxamido)phenyl)acetic acid]
16 | < 1000 | COCc1cc2cc(COc3cc(NC(C)=O)ccc3CC(=O)O)cc(-c3cccc(CN)c3F)c2o1 [Compound 441c, 2-(4-acetamido-2-((7-(3-(aminomethyl)-2-fluorophenyl)-2-(methoxymethyl)benzofuran-5-yl)methoxy)phenyl)acetic acid]
17 | > 10000 | Cc1cc(NC(=O)c2nc(-c3cccc(CN)c3F)nn3cccc23)n(CC(=O)O)n1 [Compound 54d, 2-(5-(2-(3-(aminomethyl)-2-fluorophenyl)pyrrolo[2,1-f][1,2,4]triazine-4-carboxamido)-3-methyl-1H-pyrazol-1-yl)acetic acid]
18 | < 1000 | NCc1cccc(-c2cc(COc3ccccc3CC(=O)O)cc3sc(Cl)cc23)c1F [Compound 337b, 2-(2-((4-(3-(aminomethyl)-2-fluorophenyl)-2-chlorobenzo[b]thiophen-6-yl)methoxy)phenyl)acetic acid]

Row | IC50 [nM] | Compound
19 | < 1000 | NCc1cc(-c2cc(COc3ccccc3CC(=O)O)cc3c(C(F)(F)F)coc23)ccn1 [Compound 175c, 2-(2-((7-(2-(aminomethyl)pyridin-4-yl)-3-(trifluoromethyl)benzofuran-5-yl)methoxy)phenyl)acetic acid]
20 | < 1000 | NCc1cccc(-c2cc(COc3ccccc3CC(=O)O)cc3ccsc23)c1 [Compound 214f, 2-(2-((7-(3-(aminomethyl)phenyl)benzo[b]thiophen-5-yl)methoxy)phenyl)acetic acid]
21 | < 1000 | COc1ccc(CC(=O)O)c(OCc2cc(-c3cccc(CN)c3F)c3occc3c2)c1 [Compound 465b, 2-(2-((7-(3-(aminomethyl)-2-fluorophenyl)benzofuran-5-yl)methoxy)-4-methoxyphenyl)acetic acid]
22 | < 1000 | CC(O)c1cc2cc(COc3ccccc3CC(=O)O)cc(-c3cccc(CN)c3)c2o1 (stereo not drawn) [Compound 98e, 2-(2-((7-(3-(aminomethyl)phenyl)-2-(1-hydroxyethyl)benzofuran-5-yl)methoxy)phenyl)acetic acid]
23 | < 1000 | NCc1ccc(CC(=O)O)c(OCc2cc(-c3ccnc(CN)c3F)c3occc3c2)c1 [Compound 405e, 2-(4-(aminomethyl)-2-((7-(2-(aminomethyl)-3-fluoropyridin-4-yl)benzofuran-5-yl)methoxy)phenyl)acetic acid]
24 | < 1000 | NCc1cc(-c2cc(COc3ccc(F)cc3CC(=O)O)cc3ccoc23)ccn1 [Compound 329b, 2-(2-((7-(2-(aminomethyl)pyridin-4-yl)benzofuran-5-yl)methoxy)-5-fluorophenyl)acetic acid]
25 | < 1000 | NCc1cccc(-c2cc(COc3cc(-c4cccnc4)ccc3CC(=O)O)cc3ccoc23)c1 [Compound 319c, 2-(2-((7-(3-(aminomethyl)phenyl)benzofuran-5-yl)methoxy)-4-(pyridin-3-yl)phenyl)acetic acid]
26 | < 1000 | Cn1ncc2c(-c3ccnc(CN)c3)cc(COc3ccccc3CC(=O)O)cc21 [Compound 135c, 2-(2-((4-(2-(aminomethyl)pyridin-4-yl)-1-methyl-1H-indazol-6-yl)methoxy)phenyl)acetic acid]
27 | < 1000 | CC(=O)c1ccc(CC(=O)O)c(OCc2cc(-c3cccc(CN)c3)c3occc3c2)c1 [Compound 262c, 2-(4-acetyl-2-((7-(3-(aminomethyl)phenyl)benzofuran-5-yl)methoxy)phenyl)acetic acid]
28 | < 1000 | NCc1c(F)ccc(-c2cc(COc3ccccc3CC(=O)O)cc3ccoc23)c1F [Compound 75c, 2-(2-((7-(3-(aminomethyl)-2,4-difluorophenyl)benzofuran-5-yl)methoxy)phenyl)acetic acid]
29 | < 1000 | Cc1ccc(CC(=O)O)c(OCc2cc(-c3ccnc(CN)c3F)c3ccn(C)c3c2)c1 [Compound 366d, 2-(2-((4-(2-(aminomethyl)-3-fluoropyridin-4-yl)-1-methyl-1H-indol-6-yl)methoxy)-4-methylphenyl)acetic acid]
30 | 1000 to 10000 | Nc1n[nH]c2c(-c3cc(COc4ccccc4CC(=O)O)cc4ccoc34)cccc12 [Compound 176c, 2-(2-((7-(3-amino-1H-indazol-7-yl)benzofuran-5-yl)methoxy)phenyl)acetic acid]
31 | 1000 to 10000 | NCc1cccc(-c2cc(COc3ccccc3CC(=O)O)cc3nncn23)c1 [Compound 159f, 2-(2-((5-(3-(aminomethyl)phenyl)-[1,2,4]triazolo[4,3-a]pyridin-7-yl)methoxy)phenyl)acetic acid]
32 | < 1000 | NCc1nccc(-c2c(F)c(COc3ccccc3CC(=O)O)cc3ccoc23)c1F [Compound 531c, 2-(2-((7-(2-(aminomethyl)-3-fluoropyridin-4-yl)-6-fluorobenzofuran-5-yl)methoxy)phenyl)acetic acid]
33 | < 1000 | CC(=O)c1ccc(CC(=O)O)c(OCc2cc(-c3ccnc(CN)c3)c3occc3c2)c1 [Compound 511e, 2-(4-acetyl-2-((7-(2-(aminomethyl)pyridin-4-yl)benzofuran-5-yl)methoxy)phenyl)acetic acid]
34 | > 10000 | NCc1cc(-c2cc(COc3ccccc3CC(=O)O)cc3ccoc23)c2occc2c1 [Compound 335d, 2-(2-((5′-(aminomethyl)-[7,7′-bibenzofuran]-5-yl)methoxy)phenyl)acetic acid]
35 | < 1000 | NCc1cccc(-c2cc(COc3ccccc3CC(=O)O)cc3ccsc23)c1F [Compound 247b, 2-(2-((7-(3-(aminomethyl)-2-fluorophenyl)benzo[b]thiophen-5-yl)methoxy)phenyl)acetic acid]
36 | < 1000 | NCc1cccc(-c2cc(COc3ccccc3CC(=O)O)cc3cc(Cn4ccnc4)oc23)c1 [Compound 140c, 2-(2-((2-((1H-imidazol-1-yl)methyl)-7-(3-(aminomethyl)phenyl)benzofuran-5-yl)methoxy)phenyl)acetic acid]
